Data: patent publication US20250332078A1, “COSMETIC AND/OR PHARMACEUTICAL COMPOSITIONS CONTAINING CANNABINOIDS” (priority 2020, published 2025)
Where two headings read alike, the source gives them in different places.

Tests used:
IL8 = IL8 ELISA on HaCaT cells, inflammation triggered with IL1α; format: cell-based, human; conditions: for IL8 inhibition / inhibition at 2.2 µM / inhibition at 4.6 µM / inhibition at 10 µM: HaCaT; for anti-inflammatory activity (IL8 secretion), in words: Example 2; for inhibition at 2.2 µM / inhibition at 4.6 µM / inhibition at 10 µM: Homo sapiens, read-out: IL8 inhibition
From the text: Inflammation in the skin occurs after UV or chemical exposure, microbial infection or wounding to form a defense against pathogens. However, inflammation in response to UV is associated with degenerative processes in the skin resulting in photoaging, wrinkle and age spot formation. In order to identify the Anti-inflammatory (AI) potential of the test samples the inflammatory mediators interleukin 8 (IL8) were quantified, which initiate and mediate inflammation through recruitment of inflammatory cells from the vasculature. Another object has been identification of the synergistic activity of the test substances. For this purpose, the individual cellular AI potential of bisabolol and synthetic CBD (hereinafter referred to as “SymDStress” obtained from Symrise AG, Holzminden, Germany) with their combination in 100:5, 100:4, 100:3, 100:2 and 100:1 ratios were examined.
Interleukin 8 (IL-8) or CXCL8 is a chemokine produced by macrophages and other cell types such as epithelial cells, airway smooth muscle cells and endothelial cells. In humans, the interleukin-8 protein is encoded by the IL8 gene IL-8 is initially produced as a precursor which undergoes cleavage to create several active IL-8 isoforms. In culture, a 72 amino acid peptide is the major form secreted by all kinds of cells. Interleukin-8 is a key mediator associated with inflammation where it plays a key role in neutrophil recruitment and neutrophil degranulation. As an example, it has been cited as a pro-inflammatory mediator in gingivitis, psoriasis and other diseases. IL8 secretion is increased by various kinds of stress including UV & oxidant stress, which thereby cause the recruitment of inflammatory cells and induces a further increase in oxidant stress mediators, making it a key parameter in localized inflammation.
The ELISA assay uses a solid-phase type of enzyme immunoassay (EIA) to detect the presence of a protein in a liquid sample using antibodies directed against the protein to be measured. Performing an ELISA involves at least one antibody with specificity for that particular protein. The sample with an unknown amount of protein is immobilized on a solid support (usually a polystyrene microtiter plate). After the protein is immobilized, the detection antibody is added, forming a complex with the protein. The detection antibody can be covalently linked to an enzyme or can itself be detected by a secondary antibody that is linked to an enzyme through bio-conjugation. Between each step, the plate is typically washed with a mild detergent solution to remove any proteins or antibodies that are non-specifically bound. After the final wash step, the plate is developed by adding an enzymatic substrate to produce a visible signal, which indicates the quantity the protein to be measured in the sample.
In the present test approach, the IL8 produced and secreted by cells were determined in an Enzyme linked immunosorbance assay (ELISA) from cell supernatants utilizing antibodies detecting the IL8. The assay was performed on HaCaT cells by addition of test substances and their incubation for 6 h (37° C.). Afterwards, inflammation was triggered with IL1α for 2 h or respectively 24 h and IL8 was measured. Therefore, the quantitative sandwich enzyme immunoassay technique was employed. A monoclonal antibody specific for human IL-8 was pre-coated onto a microplate. Standards and samples/supernatants were pipetted into the wells and any IL-8 present was bound by the immobilized antibody. After washing away any unbound substances, an enzyme-linked polyclonal antibody specific for human IL-8 was added to the wells. Following a wash to remove any unbound antibody-enzyme reagent, a substrate solution was added. A color developed in proportion to the amount of IL-8 bound in the initial step. Therefore, the IL8 concentrations for unknown samples are interpolated from the standard curve. […]

[1] = ABTS assay, chemical anti-oxidative capacity
Experimental: The ABTS-Assay is a cell free in vitro test for the evaluation of the chemical AOX capacity. The assay principle bases on the reduction and the involved de-colorization of the green colored cationic radical 2,2′-Azinobis(3-ethylbenzothiazoline 6-sulfonic acid) (ABTS+) by antioxidants. The de-colorization can be measured photometrically at 734 nm. Determination of the anti-oxidative capacity is performed in 96-well microplates from Nunc (Wiesbaden, Germany) and with the microplate reader “Spark” from Tecan (Crailsheim, Germany).
Samples were incubated for 10 min at 30° C. with the 2,2′-Azinobis-(3-ethylbenzothiazoline-6-sulfonate (ABTS) radical cation (Sigma, St. Louis, USA) obtained by chemical conversion of ABTS with potassium persulfate (K2S2O8). As a positive control Trolox was co-tested. The degree of de-colorization was determined photometrically at 734 nm. Results are averaged from 2 independent experiments performed in quadruple technical replicates. The anti-oxidative capacity is expressed in IC50 values (concentration that scavenges 50% of the cationic radical relative to the untreated ABTS solution), which is determined by 4-parameter logistic regression.

NHDF cells = assay: DCF assay, cellular anti-oxidative capacity (ROS reduction); format: cell-based, human
Experimental: To quantify intracellular radicals in a cell model the dichlorofluorescein (DCF) assay was performed. Therefore, normal dermal human fibroblasts were used as a model for the skin dermis, where ROS would damage cells and the surrounding tissue, which as opposed to keratinocytes accumulate damage over the human life time. […] By intracellular esterases and oxidation, the non-fluorescent H2DCFDA is converted to the highly fluorescent 2′,7′-dichlorofluorescein (DCF). The non-fluorescent fluorescin (2′,7′-dichlorofluorescein diacetate (DCFH-DA) pass the cell membranes. In the cytoplasm, it is cleaved by intracellular esterases and thereby trapped in the cell. The oxidation of DCFH to DCF by intracellularly existing ROS originated from H2O2 added to the cells (reactive oxygen species) results in fluorescence.
Determination of the anti-oxidative capacity is performed in 96-well microplates from Nunc (Wiesbaden, Germany) and with the microplate reader “Spark” from Tecan (Crailsheim, Germany).
Cells are seeded in a black 96 well microplate with transparent bottom and incubated at 37° C. After 24 hours the cells were starved with 0.1% FBS for 24 h. Then the supernatant is aspirated and the test samples are added and incubated for 24 h. As a positive control Trolox is always co-tested. Then the DCF Assay is performed and the fluorescence is measured from bottom of well at EX/EM 485/528 nm. The cellular AOX capacity is expressed in percent as ROS reduction, which can be determined by rule of proportion in combination with the control.

[2] = Recrystallization in emulsion (Olympus microscope IX-70, polarized light); format: physicochemical
Experimental: To save energy and reduce CO2 there's a trend for cold process emulsions. So it's recommended to use liquid ingredients or well soluble ingredients. […] Recrystallization is evaluated with Olympus microscope IX-70 (60fold) polarized light. As synergist effects in terms of efficacy had been observed, SymDStress is solved in Dragosantol® 100 (Bisabolol). […] The mixture is suitable for cold/cold, hot/cold and cold/cold process emulsions, gels etc.
As synergist effects in terms of efficacy had been observed, SymD Stress is solved in Dragosantol® 100 (Bisabolol). […] Mixture is suitable for cold/cold, hot/cold and cold/cold process emulsions, gels. […] (see FIG. 1). After 6M 5° C. no change in formulation containing Bisabolol. Bisabolol is a very effective solvent for Cannabidiol and helps to prevent recrystallization in target application.

Water solubility = format: physicochemical
[3] = Color stabilization in o/w emulsion formulation; format: physicochemical
Experimental: Besides colour stability of pure product for end customer colour stability of the formulation is even more important. Discoloration is related for customer to shelf life, reduced efficacy and microbial contamination. Therefore, blends were tested in simple o/w emulsions adding an amino carboxylate and in the alternative a phytic acid salt. The results are shown in […]

[4] = Colour stability of cannabidiol/bisabolol blend with stabilizers (LICO 690, L*a*b, ΔE); format: physicochemical; conditions: FIG. 2
Experimental: Colour Stability is an important criterion for customers. Particularly, a product should not change colour during storage. Especially long term stability at room temperature dark stored (RTD) is important, as this simulates storage at a customer. To evaluate effect different antioxidants are tested in common used concentration (see Table 7). Colour is evaluated with LICO 690 (L*a*b-system). Results are compared with ΔE according to the following equation: […]

[5] = Table 1, 0.000034 % (0.0011 mM)
[6] = Table 1, 0.000074 % (0.0023 mM)
[7] = Table 1, 0.000159 % (0.0050 mM)
[8] = Table 1, 0.000343 % (0.0110 mM)

C=C(C)[C@@H]1CCC(C)=C[C@H]1c1c(O)cc(CCCCC)cc1O [CBD (natural), cannabidiol, reference compound]
IL8 inhibition (IL8; [5]): −0.85%
IL8 inhibition (IL8; [6]): 4.84%
IL8 inhibition (IL8; [7]): 11.42%
IL8 inhibition (IL8; [8]): 31.90%

C=C(C)[C@@H]1CCC(C)=C[C@H]1c1c(O)cc(CCCCC)cc1O [CBD (synthetic), cannabidiol]
anti-inflammatory activity (IL8 secretion), in words (IL8): significant anti-inflammatory activity
inhibition at 2.2 µM (IL8): 6%
inhibition at 4.6 µM (IL8): 18%
inhibition at 10 µM (IL8): 31%
IL8 inhibition (IL8; [5]): −0.84%
IL8 inhibition (IL8; [6]): 13.91%
IL8 inhibition (IL8; [7]): 25.98%
IL8 inhibition (IL8; [8]): 34.25%
IL8 inhibition (IL8; Table 3, 0.000150 % (0.005 mM)): 21%
AOX capacity compared to the technical positive control, in words [1]: higher AOX capacity
Anti-oxidative capacity ([1]; 0.0000160 %): 23%
Anti-oxidative capacity ([1]; 0.0000310 %): 28%
Anti-oxidative capacity ([1]; 0.000160 %): 84%
Anti-oxidative capacity ([1]; 0.000310 %): 96%
Anti-oxidative capacity ([1]; 0.000470 %): 100%
Anti-oxidative capacity ([1]; 0.000630 %): 100%
ROS reduction (NHDF cells; Table 5, 0.0000031 % (0.0001 mMol/l)): 24.01%
ROS reduction (NHDF cells; Table 5, 0.0000063 % (0.0002 mMol/l)): 35.43%
ROS reduction (NHDF cells; Table 5, 0.0000126 % (0.0004 mMol/l)): 34.74%
ROS reduction (NHDF cells; Table 5, 0.0000157 % (0.0005 mMol/l)): 34.55%
ROS reduction (NHDF cells; Table 5, 0.0000397 % (0.0013 mMol/l)): 40.61%
ROS reduction (NHDF cells; Table 5, 0.0000496 % (0.0016 mMol/l)): 48.96%
ROS reduction (NHDF cells; Table 5, 0.000094 % (0.0003 mMol/l)): 40.4%
ROS reduction (NHDF cells; Table 6, 0.000001256 % (0.00004 mMol/l)): 7.20%
ROS reduction (NHDF cells; Table 6, 0.000001570 % (0.00005 mMol/l)): −5.44%
reducing intracellular ROS expression (NHDF cells; summary of Table 5): up to 50%
recrystallization in formulation ([2]; 0.025% CBD, after 1M 5° C.): recrystallization can be observed
recrystallization in emulsion ([2]; after 1M at Room temperature dark (RTD) storage): recrystallization in emulsion is observed
water solubility, in words (Water solubility): low water solubility

O=C([O-])CN(CCN(CC(=O)[O-])CC(=O)O)CC(=O)O.[Na+].[Na+] [Disodium EDTA]
discoloration of formulation, in words ([3]; after 1M storage at RTL, FIG. 3): excellent stabilizing agent against discoloration

O=C([O-])CC[C@@H](C(=O)[O-])N(CC(=O)[O-])CC(=O)[O-].[Na+].[Na+].[Na+].[Na+] [Tetrasodium Glutamate Diacetate]
discoloration in the end-formulation, in words ([3]; Table 9, FIG. 4): reduced discoloration

CC(C)=CCC[C@](C)(O)[C@@H]1CC=C(C)CC1 [α-bisabolol, alpha-bisabolol]
anti-inflammatory activity (IL8 secretion), in words (IL8): opposite effect
inhibition at 2.2 µM (IL8; Table 2, 0.0022 mM): -14%
inhibition at 4.6 µM (IL8; Table 2, 0.0046 mM): -3%
inhibition at 10 µM (IL8; Table 2, 0.01000 mM): 1%
IL8 inhibition (IL8; Table 3, 0.002847 % (0.100 mM)): 39%
ROS reduction (NHDF cells; Table 6, 0.00002847 % (0.00100 mMol/l)): 10.61%

Tocopherol
discoloration of solution, in words [4]: can prevent solution from discoloration
